The source of these data is article PMC9655874, “Analysis of Volatile Secondary Metabolites in Ocimum basilicum Cell Suspensions: Inhibition, In Silico Molecular Docking, and an ADMET Analysis against Proteolytic Enzymes of Rhynchophorus ferrugineus” (Plants, 2022).

One experiment concerns R. ferrugineus adults. In words: whole plant or invertebrate. Type of experiment: in vivo. The settings on record: Rhynchophorus ferrugineus, read-out: LC50 (µg/mL) 95% CF. As to the method: (§1) Cells were suspended in the methanolic extract at serially increasing concentrations for 40 days. To dilute the compounds, TritonX-100 (0.1%) was added to acetone after the chemicals were dissolved. Adults or larvae of R. ferrugineus were purchased. They were then cultured using long lengths of sugar cane stem. The extracts’ anti-larvae action was assessed by applying topically to larvae and keeping them at 4–5 °C for 5 min. Utilizing a manually controlled micro-applicator, each larva had extract injected into its dorsum in three separate 10 µL doses using a 50-ll micro-syringe from Hertfordshire, UK’s Burkard Manufacturing Co., Ltd. (MS-N50; Shizuoka, Japan’s Ito Corp.). Five larvae in a box with three replications were fed on portions of long sugarcane stem measuring 10 cm. […] The sugarcane stem’s ten-centimeter-long portions cut into equal longitudinal halves were used to measure the antifeedant activity against adults. Long sections of sugarcane stem with a surface area of approximately 32.2 cm^2 were dried in air at room temperature, assuming a dipping time of 10 s and an initial serial concentration of (10 mL). Each treated object remained in a plastic container. Each box included an additional pair (male and female). Each therapy was administered ten times. In total, 24-, 48-, 72-, and 96-h feeding observations were assessed.
(§2) Statistics and probit analysis were performed using SPSS 25.0, as mentioned by Finney. To sum up, all numerical predictions of toxicity variables and findings were presented as the mean ± SE. We regressed mortality and translated the resulting dosage to an LC50 value (µg/mL). […] Enzyme activity data were analyzed using an ANOVA. Means were separated using the SNK (Student–Newman–Keuls) test, and deviations at the p ˂ 0.05 level were considered noteworthy.

The subject of experiment [1] is R. ferrugineus 4th larvae. In words: Topical application (contact insecticide) to fourth instar larvae. The settings on record: for LD50 (µg/Larvae) 95% CF: 4th larvae, topical, 95% confidence limits in brackets; for LD50: larvae. In kind it is in vivo, Rhynchophorus ferrugineus. Here is the method:
as §1, §2

The target in experiment [2] is elastase of R. ferrugineus midgut. In words: Serine proteinase specific activity, elastase (in vitro). In kind it is biochemical, Rhynchophorus ferrugineus. The settings on record: 4th instar midgut homogenate.
For experiment [3], the system named is elastase of R. ferrugineus midgut. Kind of experiment: Elastase activity in midgut of treated larvae (in vivo). On the set-up: species or system Rhynchophorus ferrugineus. The settings on record: larvae treated 24 h, midgut preparation.
Experiment [4] has as its target trypsin proteinase of R. ferrugineus midgut. Kind of experiment: Serine proteinase specific activity, trypsin (in vitro). The settings on record: 4th instar midgut homogenate.
Protocol: (§4) We used a serine protease assay buffer and a modified version of the fast microplate method to analyze the serine proteinase’s specific activity in mixtures (150 µL) [26]. […] The sample (10 µL) was diluted using an assay buffer to 50 µL to determine the presence of trypsin proteinase, chymotrypsin proteinase, and elastase. Assay buffer was used to dilute stock substrates of BAρNA (100 mg/mL DMSO), both SAAPFρNA and SAAPLρNA (100 mg/mL DMF), to 1.0 mg/mL. To halt the reaction after 15 min of incubation at 37 °C, 50 µL of acetic acid (30%, v/v) was added. The intensity of the activity was measured using a 405 nm ELISA plate reader. A denaturation enzyme was used in place of an active enzyme in the experiment mixture. For three substrates (SAAPLρNA, BAρNA, and SAAPFρNA), activity levels of certain proteinases were assessed as OD mg^−1 protein min^−1.
(§5) An experiment that was set up free of potential inhibitors served as a control. An ELISA plate fast reader measured the enzymes’ absorption at various wavelengths. For each inhibitor, the control enzyme’s percentage activity was assessed for each enzyme. Four instars midgut larvae were treated with previous concentrations of extracts or compounds, assessed as previously mentioned, to measure the protease activity in vivo. Larvae were subjected to extract- and compound-treated leaf discs for 24 h.
Experiment [5] concerns total proteases of R. ferrugineus midgut. Kind of experiment: Total protease activity in midgut of treated larvae (in vivo). The following applies: larvae treated 24 h, midgut preparation.
Protocol: (§6) The homogenate of R. ferrugineus 4th midgut instar larvae (lab strain) was assayed for total proteolytic enzyme activity using azocasein, as Darrag et al. [26], with modifications. Ten 4th midgut larval homogenates were carefully removed, incised, and then rinsed in a solution containing 0.9% NaCl before even being homogenized in a buffer (500 µL) containing 5 mM dithiothreitol (DTT), 0.1% (v/v) Triton X-100, and 50 mM N-2-hydroxyethyl piperazine-N′-2-ethane sulphonic acid (HEPS), and 8.0 pH. It was spun in a centrifuge (Sigma 3k30), and the remaining homogenates were from a preliminary phase for 30 min at 5000 rpm. Using the supernatants, the protein concentration and proteolytic enzyme activity were determined. […] Before each reaction experiment, 40-day-old methanolic extract of cell suspension, pure chemicals, and 10 μL of enzyme specimens were incubated for 10 min. The addition of the substrate initiated the reaction, which was allowed for 20 min in the case of leupeptin before being terminated 180 min later by adding 300 µL of cold tri-chloroacetic acid (TCA) (10%, v/v). Twenty minutes were spent centrifuging the mixture at 5000 rpm (Sigma 3k30). Overall, 10 µL of NaOH (10 N) was added to the supernatant, and the absorbance was measured using an ELISA plate reader at 450 nm to quantify the enzymes’ specific activity as OD450/mg protein/h.
as §5
The target of experiment [6] is metalloprotease of R. ferrugineus midgut. In words: Metalloproteinase specific activity, CEGR substrate (in vitro). The settings on record: 4th instar midgut homogenate.
Protocol: (§7) The ten midgut larvae from the fourth stage were neatly eliminated, dissected, and repeatedly washed with 0.9% NaCl solution. A 500 µL protease test solution, including 50 mM HEPS, 0.1% Triton X-100, and 5 mM DTT (pH 8.0), was utilized to homogenize the midgut instar. The homogenates were then centrifuged employing a Sigma 3k30 (cooling centrifuge) at 5000 rpm for 30 min to evaluate the supernatant’s enzyme activity and protein content. Before introducing CEGR (125 µL, 2% (w/v)), each experiment’s supernatant (10 µL) was incubated in an assay buffer (60 µL) at 37 °C for 20 min (pH 8). During a 10 min incubation period without a substrate, 10 µL enzyme samples were tested (20 min. for EDTA, EGTA, 1.10, Phenanthroline). After 180 min at 37 °C, 300 µL of cold TCA, 10% (v/v), was used to terminate the reaction. For the next 20 min, the mixture was spun (5000 rpm, Sigma 3K30). The absorbance was measured at 450 nm after mixing the supernatant with hydroxide solution (10 µL, 10 N) using an ELISA reader. An enzyme-free assay combination was utilized as a blank, and particular activity was evaluated utilizing the OD493 mg^−1 protein min^−1 and an enzyme-free blank specimen.
as §5
The test system of experiment [7] is metalloprotease of R. ferrugineus midgut. Kind of experiment: Metalloprotease activity in midgut of treated larvae (in vivo). The following applies: larvae treated 24 h, midgut preparation.
Protocol: as §7, §5
In experiment [8] the target is total proteases of R. ferrugineus midgut. Kind of experiment: Total proteolytic enzyme activity of 4th instar midgut homogenate, azocasein (in vitro).
Protocol: as §6, §5
Experiment [9] deals with cysteine protease of R. ferrugineus midgut. Kind of experiment: Cysteine proteinase activity (in vitro). In kind it is biochemical, Rhynchophorus ferrugineus. The settings on record: 4th instar midgut homogenate. As to the method: (§3) Utilizing the substrate N-benzoyl-Phe-Val-Arg-p-nitroanilide hydrochloride and certain modifications, the cysteine proteinases of R. ferrugineus homogenate from the fourth midgut instar was tested for activity. Ten larvae of the fourth midgut were carefully taken out, dissected, and periodically washed with 0.9% (w/v) NaCl solution, assay buffer containing 50 mM HEPS, 5 mM DTT, and 0.1% Triton X-100 (v/v) (pH 8.0, 500 µL) was used to homogenize the samples. The homogenates were spun using a cooling Sigma 3k30 centrifuge for 30 min at 5000 rpm. […] Before introducing 100 µL of the substrate, 10 µL of the supernatant was incubated in assay buffer (60 µL, pH = 8) at 37 °C for 30 min. Enzyme samples in 10 µL were incubated for 10 min with iodoacetic acid before the addition of the substrate. […] The absorbance at 520 nm was measured after spinning the reaction for 6 min at 5000 rpm. The activity in the midgut was assayed at OD520.60 min^−1 mg^−1 of protein with an ELISA rapid reader.

In experiment [10] the test system is cysteine protease of R. ferrugineus midgut. In words: Cysteine protease activity in midgut of treated larvae (in vivo). On the set-up: species or system Rhynchophorus ferrugineus. The following applies: larvae treated 24 h, midgut preparation. As to the method: as §3
For experiment [11], the system named is trypsin proteinase of R. ferrugineus midgut. In words: Trypsin activity in midgut of treated larvae (in vivo). The following applies: larvae treated 24 h, midgut preparation.
Protocol: as §4, §5

Molecules are shown by their SMILES. In brackets after ≈: the same amount, converted by molar mass.

For the compound `CC12CCC(CC1)C(C)(C)O2` [1,8-cineole], the LC50 in the experiment on R. ferrugineus adults was determined as 1430 µg/mL (≈ 9240 µM). In addition, in experiment [1], the “LD50 (µg/Larvae) 95% CF” value was 13.9 (12.8–14.7) µg/Larvae and the LD50 was 13.9 µg/larva. In addition, the LD50 in experiment [1] (topical application) is 13.9 µg/larva. In addition, the “IC50 elastase (in vitro)” value in experiment [2] came out at 119.4 µg/mL (≈ 774 µM). Further, in experiment [3], the “IC50 elastase (in vivo)” value is on record as 256.3 µg/mL (≈ 1660 µM). The “IC50 trypsin proteinase (in vitro)” value in [4] is 271.2 µg/mL (≈ 1760 µM). The “IC50 total proteases (in vivo)” value in [5] worked out at 193.1 µg/mL (≈ 1250 µM). The “IC50 metalloprotease (in vitro)” value in [6] is given as 708.2 µg/mL (≈ 4590 µM). Further, the “IC50 metalloprotease (in vivo)” value in experiment [7] stood at 1297.2 µg/mL (≈ 8410 µM). In addition, the “IC50 total proteases (in vitro)” value in [8] was 91.5 µg/mL (≈ 593 µM).
Turning to `C=CC(C)(O)CCC=C(C)C` (centres unmarked) [linalool], the LC50 in the experiment with R. ferrugineus adults turned out to be 1400 µg/mL (≈ 9060 µM). Besides, the “LD50 (µg/Larvae) 95% CF” value in experiment [1] was 13.7 (12.6–14.8) µg/Larvae. Further, the LD50 in experiment [1] and in experiment [1] (topical application) was 13.7 µg/larva in each case. Moreover, the “IC50 elastase (in vitro)” value in experiment [2] amounted to 104.2 µg/mL (≈ 676 µM). The “IC50 cysteine protease (in vitro)” value in experiment [9] is reported as 189.2 µg/mL (≈ 1230 µM). For the same compound, the “IC50 elastase (in vivo)” value in experiment [3] is reported as 217.2 µg/mL (≈ 1410 µM). Also, the “IC50 cysteine protease (in vivo)” value in experiment [10] is on record as 348.2 µg/mL (≈ 2260 µM). Also, the “IC50 trypsin proteinase (in vivo)” value in [11] was found to be 137.5 µg/mL (≈ 891 µM). Also, the “IC50 trypsin proteinase (in vitro)” value in experiment [4] was determined as 63.4 µg/mL (≈ 411 µM). Further, in experiment [5], the “IC50 total proteases (in vivo)” value is listed as 192.7 µg/mL (≈ 1250 µM). For the same compound, in [6], the “IC50 metalloprotease (in vitro)” value is recorded as 278.2 µg/mL (≈ 1800 µM). Further, the “IC50 total proteases (in vitro)” value in experiment [8] is listed as 90.7 µg/mL (≈ 588 µM).
As to `C=CCc1ccc(O)c(OC)c1` [eugenol], the LC50 in the experiment with R. ferrugineus adults was determined as 1460 µg/mL (≈ 8890 µM). In addition, the “LD50 (µg/Larvae) 95% CF” value in experiment [1] was 14.2 (13.1–15.4) µg/Larvae. Moreover, the LD50 in experiment [1] and in experiment [1] (topical application) was 14.2 µg/larva in each case. For the same compound, in [2], the “IC50 elastase (in vitro)” value is listed as 165.7 µg/mL (≈ 1010 µM). In addition, the “IC50 cysteine protease (in vitro)” value in experiment [9] is listed as 294.4 µg/mL (≈ 1790 µM). Besides, in experiment [3], the “IC50 elastase (in vivo)” value was determined as 346.8 µg/mL (≈ 2110 µM). In addition, the “IC50 cysteine protease (in vivo)” value in experiment [10] turned out to be 453.1 µg/mL (≈ 2760 µM). The “IC50 trypsin proteinase (in vivo)” value in experiment [11] came to 612.8 µg/mL (≈ 3730 µM). Besides, in experiment [4], the “IC50 trypsin proteinase (in vitro)” value is listed as 247.2 µg/mL (≈ 1510 µM). For the same compound, the “IC50 total proteases (in vivo)” value in experiment [5] amounted to 201.4 µg/mL (≈ 1230 µM). For the same compound, the “IC50 metalloprotease (in vitro)” value in experiment [6] worked out at 478.6 µg/mL (≈ 2910 µM). Moreover, the “IC50 total proteases (in vitro)” value in experiment [8] came to 97.6 µg/mL (≈ 594 µM).
As for `C=C(C)C1CCC(C)(O)CC1` (stereo not drawn) [β-terpineol], the LC50 in the experiment with R. ferrugineus adults is 3920 µg/mL (≈ 25400 µM). For the same compound, the “LD50 (µg/Larvae) 95% CF” value in [1] was 42.6 (39.7–44.3) µg/Larvae. This compound came in with an LD50 in experiment [1] (topical application) of 42.6 µg/larva. Further, the “IC50 elastase (in vitro)” value in experiment [2] was 112.6 µg/mL (≈ 730 µM). Besides, in experiment [9], the “IC50 cysteine protease (in vitro)” value is 287.3 µg/mL (≈ 1860 µM). In addition, the “IC50 elastase (in vivo)” value in experiment [3] was 239.4 µg/mL (≈ 1550 µM). For the same compound, the “IC50 cysteine protease (in vivo)” value in [10] stood at 427.4 µg/mL (≈ 2770 µM). Besides, in experiment [11], the “IC50 trypsin proteinase (in vivo)” value was 237.1 µg/mL (≈ 1540 µM). Moreover, the “IC50 trypsin proteinase (in vitro)” value in experiment [4] amounted to 168.4 µg/mL (≈ 1090 µM). For the same compound, the “IC50 total proteases (in vivo)” value in experiment [5] is 379.5 µg/mL (≈ 2460 µM). Also, in experiment [6], the “IC50 metalloprotease (in vitro)” value was 543.5 µg/mL (≈ 3520 µM). In addition, the “IC50 metalloprotease (in vivo)” value in experiment [7] amounted to 1175.2 µg/mL (≈ 7620 µM). In experiment [8], the “IC50 total proteases (in vitro)” value is given as 281.7 µg/mL (≈ 1830 µM).
